Patent US8022206B2 (OSI Pharmaceuticals, LLC, priority 2008, dated 2011)

Columns and labels:
RON (human) = RON (human) (Homo sapiens, UniProt Q04912); test: RON (human) AlphaScreen kinase assay, Km of ATP; assay type: biochemical; conditions: AlphaScreen, Km of ATP; read-out: RON biochemical IC50
In short: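 Reaction was started with enzyme and run 30 min at RT. PT66 donor/acceptor beads in an EDTA-containing Tris pH 7.5 buffer were then added, and the signal was read after 1 h.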

MET (human) = MET (human) (Homo sapiens, UniProt P08581); test: MET (human) AlphaScreen kinase assay, Km of ATP; assay type: biochemical; conditions: AlphaScreen, Km of ATP; read-out: Met biochemical IC50
In short: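 Human MET at lot-optimised concentration in 50 mM Tris pH 7.4 buffer with 1 mM DTT, compound at 1% DMSO final; enzyme starts the reaction, 60 min at RT.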

RON (human), sequence (Q04912 25-1400): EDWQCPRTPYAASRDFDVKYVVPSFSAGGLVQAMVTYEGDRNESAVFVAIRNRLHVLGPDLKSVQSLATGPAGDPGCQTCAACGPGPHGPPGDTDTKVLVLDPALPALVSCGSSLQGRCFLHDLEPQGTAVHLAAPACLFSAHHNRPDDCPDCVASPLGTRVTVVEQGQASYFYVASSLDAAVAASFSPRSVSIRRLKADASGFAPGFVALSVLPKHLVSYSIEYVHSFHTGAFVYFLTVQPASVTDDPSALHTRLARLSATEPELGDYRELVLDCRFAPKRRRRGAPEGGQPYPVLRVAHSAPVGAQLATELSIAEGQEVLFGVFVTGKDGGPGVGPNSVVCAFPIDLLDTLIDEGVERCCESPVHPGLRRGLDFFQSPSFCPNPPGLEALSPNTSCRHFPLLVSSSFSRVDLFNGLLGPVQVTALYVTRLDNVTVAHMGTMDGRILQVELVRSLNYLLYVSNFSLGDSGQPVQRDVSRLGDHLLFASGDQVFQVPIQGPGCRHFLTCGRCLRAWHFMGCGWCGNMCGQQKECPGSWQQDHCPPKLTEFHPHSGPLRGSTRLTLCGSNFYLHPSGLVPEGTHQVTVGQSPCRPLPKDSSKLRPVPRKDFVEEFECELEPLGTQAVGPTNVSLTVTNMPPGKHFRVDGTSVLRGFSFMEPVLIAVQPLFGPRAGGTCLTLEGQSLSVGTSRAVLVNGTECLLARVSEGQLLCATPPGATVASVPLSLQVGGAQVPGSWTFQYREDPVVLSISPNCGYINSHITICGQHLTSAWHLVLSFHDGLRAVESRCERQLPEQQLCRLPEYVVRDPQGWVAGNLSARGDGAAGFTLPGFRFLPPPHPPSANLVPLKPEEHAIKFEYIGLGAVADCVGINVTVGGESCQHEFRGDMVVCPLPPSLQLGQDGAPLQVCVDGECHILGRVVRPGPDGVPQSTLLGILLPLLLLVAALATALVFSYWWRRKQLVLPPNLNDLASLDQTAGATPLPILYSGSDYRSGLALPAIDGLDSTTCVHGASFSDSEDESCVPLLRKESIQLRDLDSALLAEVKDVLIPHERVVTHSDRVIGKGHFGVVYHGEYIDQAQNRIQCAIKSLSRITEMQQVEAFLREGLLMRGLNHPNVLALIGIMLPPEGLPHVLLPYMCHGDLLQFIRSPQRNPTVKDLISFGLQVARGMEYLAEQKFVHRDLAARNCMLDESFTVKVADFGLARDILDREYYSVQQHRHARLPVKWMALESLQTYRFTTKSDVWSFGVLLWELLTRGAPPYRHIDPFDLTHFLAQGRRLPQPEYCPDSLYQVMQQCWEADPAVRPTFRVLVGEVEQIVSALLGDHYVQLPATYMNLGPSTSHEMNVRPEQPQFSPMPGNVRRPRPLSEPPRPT
MET (human), sequence (P08581 25-1390): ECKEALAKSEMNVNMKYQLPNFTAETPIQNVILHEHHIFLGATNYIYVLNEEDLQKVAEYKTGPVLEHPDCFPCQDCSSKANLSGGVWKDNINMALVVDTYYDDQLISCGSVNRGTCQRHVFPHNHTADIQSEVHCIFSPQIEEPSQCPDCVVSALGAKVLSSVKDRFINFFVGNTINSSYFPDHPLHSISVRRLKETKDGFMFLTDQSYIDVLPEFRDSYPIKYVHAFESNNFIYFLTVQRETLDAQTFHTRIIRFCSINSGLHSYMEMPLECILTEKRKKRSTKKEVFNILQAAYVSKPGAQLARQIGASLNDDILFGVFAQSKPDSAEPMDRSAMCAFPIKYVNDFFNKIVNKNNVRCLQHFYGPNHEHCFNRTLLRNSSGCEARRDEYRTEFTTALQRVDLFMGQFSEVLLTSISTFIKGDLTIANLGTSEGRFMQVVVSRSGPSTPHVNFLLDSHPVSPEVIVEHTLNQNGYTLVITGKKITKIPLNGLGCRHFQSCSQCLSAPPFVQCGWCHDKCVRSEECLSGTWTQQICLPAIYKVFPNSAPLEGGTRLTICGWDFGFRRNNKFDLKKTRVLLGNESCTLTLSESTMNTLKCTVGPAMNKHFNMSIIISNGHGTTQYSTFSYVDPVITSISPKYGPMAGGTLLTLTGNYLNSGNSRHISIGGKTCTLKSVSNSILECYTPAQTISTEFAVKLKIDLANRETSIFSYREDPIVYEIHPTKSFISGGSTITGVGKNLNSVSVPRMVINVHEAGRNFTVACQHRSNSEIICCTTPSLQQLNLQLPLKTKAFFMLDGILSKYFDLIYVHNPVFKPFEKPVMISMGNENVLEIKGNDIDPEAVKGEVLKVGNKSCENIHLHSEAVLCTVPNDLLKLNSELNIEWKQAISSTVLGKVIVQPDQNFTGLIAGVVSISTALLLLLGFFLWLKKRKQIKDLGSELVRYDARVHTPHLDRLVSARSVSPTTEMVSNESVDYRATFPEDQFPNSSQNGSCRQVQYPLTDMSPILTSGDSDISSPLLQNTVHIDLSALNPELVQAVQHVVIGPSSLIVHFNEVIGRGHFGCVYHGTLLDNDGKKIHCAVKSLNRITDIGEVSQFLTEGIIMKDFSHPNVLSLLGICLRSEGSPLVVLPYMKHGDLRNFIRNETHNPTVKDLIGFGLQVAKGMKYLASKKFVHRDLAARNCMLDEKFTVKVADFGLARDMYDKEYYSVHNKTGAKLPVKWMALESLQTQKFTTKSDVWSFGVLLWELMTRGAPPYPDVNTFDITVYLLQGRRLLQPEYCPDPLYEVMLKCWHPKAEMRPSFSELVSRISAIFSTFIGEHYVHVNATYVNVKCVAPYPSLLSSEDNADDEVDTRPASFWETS

SMILES	IC50 (RON (human))	IC50 (MET (human))
C[C@@H](Oc1c(N)ncc2c(C3=CCN(/C(=N\C#N)N(C)C)CC3)coc12)c1c(Cl)ccc(F)c1Cl [Example 196, 4-{6-Amino-7-[(R)-1-(2,6-dichloro-3-fluorophenyl)ethoxy]-furo[3,2-c]pyridin-3-yl}-N,N-cyano-N,N-dimethyl-3,6-dihydro-2H-pyridine-1-carboxamidine]	500 to 5000 nM	500 to 5000 nM
C[C@@H](Oc1c(N)ncc2c(-c3ccc(C(=O)NCCCO)cc3)coc12)c1c(Cl)ccc(F)c1Cl [Example 288, 4-{6-Amino-7-[(R)-1-(2,6-dichloro-3-fluorophenyl)ethoxy]furo[3,2-c]pyridin-3-yl}-N-(3-hydroxypropyl)benzamide]	500 to 5000 nM	500 to 5000 nM
C[C@@H](Oc1c(N)ncc2c(C3=CCN(C(=O)C4CCN(C)CC4)CC3)coc12)c1c(Cl)ccc(F)c1Cl [Example 17, (4-{6-Amino-7-[(R)-1-(2,6-dichloro-3-fluorophenyl)-ethoxy]-furo[3,2-c]pyridin-3-yl}-3,6-dihydro-2H-pyridin-1-yl)-(1-methylpiperidin-4-yl)-methanone]	< 500 nM	< 500 nM
CCNC(=O)N1CC=C(c2coc3c(O[C@H](C)c4c(Cl)ccc(F)c4Cl)c(N)ncc23)CC1 [Example 151, 4-{6-Amino-7-[(1R)-1-(2,6-dichloro-3-fluorophenyl)ethoxy]furo[3,2-c]pyridin-3-yl}-N-ethyl-3,6-dihydropyridine-1(2H)-carboxamide]	500 to 5000 nM	< 500 nM
C[C@@H](Oc1c(N)ncc2c(-c3csc(C(N)=O)c3)coc12)c1c(Cl)ccc(F)c1Cl [Example 318, 4-{6-Amino-7-[(R)-1-(2,6-dichloro-3-fluorophenyl)ethoxy]furo[3,2-c]pyridin-3-yl}thiophene-2-carboxamide]	500 to 5000 nM	500 to 5000 nM
C[C@@H](Oc1c(N)ncc2c(C3=CCN(C(=O)CN(C)C)CC3)coc12)c1c(Cl)ccc(F)c1Cl [Example 9, 1-(4-{6-Amino-7-[(R)-1-(2,6-dichloro-3-fluorophenyl)ethoxy]-furo[3,2-c]pyridin-3-yl}-3,6-dihydro-2H-pyridin-1-yl)-2-dimethylaminoethanone]	< 500 nM	< 500 nM
C[C@@H](Oc1c(N)ncc2c(C3=CCN(C(=O)[C@@H](O)c4ccccc4)CC3)coc12)c1c(Cl)ccc(F)c1Cl [Example 265, (2S)-1-[4-{6-Amino-7-[(1R)-1-(2,6-dichloro-3-fluorophenyl)ethoxy]furo[3,2-c]pyridin-3-yl}-3,6-dihydropyridin-1(2H)-yl]-2-hydroxy-2-phenylethanone]	< 500 nM	500 to 5000 nM
C[C@@H](Oc1c(N)ncc2c(C3=CCN(C(=O)c4ccn[nH]4)CC3)coc12)c1c(Cl)ccc(F)c1Cl [Example 231, (4-{6-Amino-7-[(R)-1-(2,6-dichloro-3-fluorophenyl)ethoxy]-furo[3,2-c]pyridin-3-yl}-3,6-dihydro-2H-pyridin-1-yl)-(2H-pyrazol-3-yl)-methanone]	500 to 5000 nM	500 to 5000 nM
Cn1c(Cc2ccccc2)ncc(-c2ccc(COc3c(N)ncc4ccoc34)c(F)c2)c1=O [Example 468, 5-[4-(6-Aminofuro[3,2-c]pyridin-7-yloxymethyl)-3-fluorophenyl]-2-benzyl-3-methyl-3H-pyrimidin-4-one]	5000 to 20000 nM	5000 to 20000 nM
CNC(=O)c1csc(-c2coc3c(O[C@H](C)c4c(Cl)ccc(F)c4Cl)c(N)ncc23)c1 [Example 327, 5-{6-Amino-7-[(R)-1-(2,6-dichloro-3-fluorophenyl)ethoxy]furo[3,2-c]pyridin-3-yl}thiophene-3-carboxylic acid methylamide]	5000 to 20000 nM	500 to 5000 nM
CC(C)C(=O)N1CC=C(c2coc3c(O[C@H](C)c4c(Cl)ccc(F)c4Cl)c(N)ncc23)CC1 [Example 15, 1-(4-{6-Amino-7-[(R)-1-(2,6-dichloro-3-fluorophenyl)-ethoxy]-furo[3,2-c]pyridin-3-yl}-3,6-dihydro-2H-pyridin-1-yl)-2-methylpropan-1-one]	500 to 5000 nM	500 to 5000 nM
C[C@@H](Oc1c(N)ncc2c(-c3csc(C(=O)NC(C)(C)C)c3)coc12)c1c(Cl)ccc(F)c1Cl [Example 315, 4-{6-Amino-7-[(R)-1-(2,6-dichloro-3-fluorophenyl)ethoxy]-furo[3,2-c]pyridin-3-yl}thiophene-2-carboxylic acid tert-butylamide]	500 to 5000 nM	< 500 nM
CC(Oc1c(N)ncc2c(C3=CCN(C(N)=O)CC3)coc12)c1c(Cl)ccc(F)c1Cl (stereo not shown) [Example 455, 4-{6-Amino-7-[1-(2,6-dichloro-3-fluorophenyl)ethoxy]furo[3,2-c]pyridin-3-yl}-3,6-dihydro-2H-pyridine-1-carboxamide]	500 to 5000 nM	< 500 nM
C[C@@H](Oc1c(N)ncc2c(C3=CCN(C(=O)C4(N)CC4)CC3)coc12)c1c(Cl)ccc(F)c1Cl [Example 23, (1-Aminocyclopropyl)-(4-{6-amino-7-[(R)-1-(2,6-dichloro-3-fluorophenyl)-ethoxy]-furo[3,2-c]pyridin-3-yl}-3,6-dihydro-2H-pyridin-1-yl)-methanone]	500 to 5000 nM	500 to 5000 nM
CC(C)NC(=O)c1csc(-c2coc3c(O[C@H](C)c4c(Cl)ccc(F)c4Cl)c(N)ncc23)c1 [Example 330, 5-{6-Amino-7-[(R)-1-(2,6-dichloro-3-fluorophenyl)ethoxy]furo[3,2-c]pyridin-3-yl}thiophene-3-carboxylic acid Isopropylamide]	5000 to 20000 nM	5000 to 20000 nM

More lines, now with the values ahead:

IC50 (RON (human))	IC50 (MET (human))	SMILES
500 to 5000 nM	< 500 nM	Nc1ncc2c(-c3cnn(C4CCNCC4)c3)coc2c1O[C@@H](c1ccccc1)C(F)(F)F [Example 391, 3-(1-Piperidin-4-yl-1H-pyrazol-4-yl)-7-((S)-2,2,2-trifluoro-1-phenylethoxy)furo[3,2-c]pyridin-6-ylamine]
500 to 5000 nM	< 500 nM	CC(Oc1c(N)ncc2c(-c3cnn(C4CCNCC4)c3)coc12)c1c(F)cc(Cl)cc1Cl (stereo not shown) [Example 372, 7-[1-(2,4-Dichloro-6-fluorophenyl)ethoxy]-3-(1-piperidin-4-yl-1H-pyrazol-4-yl)furo[3,2-c]pyridin-6-ylamine]
< 500 nM	< 500 nM	C[C@@H](Oc1c(N)ncc2c(C3=CCN(C(=O)[C@@H]4CCCN4C)CC3)coc12)c1c(Cl)ccc(F)c1Cl [Example 18, (4-{6-Amino-7-[(R)-1-(2,6-dichloro-3-fluorophenyl)-ethoxy]-furo[3,2-c]pyridin-3-yl}-3,6-dihydro-2H-pyridin-1-yl)-((S)-1-methylpyrrolidin-2-yl)-methanone]
500 to 5000 nM	< 500 nM	CC(Cc1ccccc1Cl)Oc1c(N)ncc2c(-c3cnn(C4CCNCC4)c3)coc12 (stereo not shown) [Example 426, 7-[2-(2-Chlorophenyl)-1-methylethoxy]-3-(1-piperidin-4-yl-1H-pyrazol-4-yl)furo[3,2-c]pyridin-6-ylamine]
< 500 nM	500 to 5000 nM	CC(Cc1ccc(Cl)c(Cl)c1)Oc1c(N)ncc2c(-c3cnn(C4CCNCC4)c3)coc12 (stereo not shown) [Example 428, 7-[2-(3,4-Dichlorophenyl)-1-methylethoxy]-3-(1-piperidin-4-yl-1H-pyrazol-4-yl)furo[3,2-c]pyridin-6-ylamine]
500 to 5000 nM	500 to 5000 nM	Nc1ncc2c(-c3cnn(C4CCNCC4)c3)coc2c1O[C@H]1CCCC[C@H]1c1ccccc1 [Example 409]
500 to 5000 nM	500 to 5000 nM	C[C@@H]1CN[C@@H](C)CN1C(=O)c1ccc(-c2coc3c(O[C@H](C)c4c(Cl)ccc(F)c4Cl)c(N)ncc23)cc1 [Example 295]
< 500 nM	< 500 nM	CC(Cc1cccc(Br)c1)Oc1c(N)ncc2c(-c3cnn(C4CCNCC4)c3)coc12 (stereo not shown) [Example 439, 7-[2-(3-Bromophenyl)-1-methylethoxy]-3-(1-piperidin-4-yl-1H-pyrazol-4-yl)furo[3,2-c]pyridin-6-ylamine]
500 to 5000 nM	< 500 nM	CC(Oc1c(N)ncc2c(-c3cnn(C4CCNCC4)c3)coc12)c1cc(F)cc(-c2cn[nH]c2)c1 (stereo not shown) [Example 451, 7-{1-[3-Fluoro-5-(1H-pyrazol-4-yl)phenyl]ethoxy}-3-(1-piperidin-4-yl-1H-pyrazol-4-yl)furo[3,2-c]pyridin-6-ylamine]
500 to 5000 nM	500 to 5000 nM	CC(Oc1c(N)ncc2c(-c3cnn(C4CCNCC4)c3)coc12)c1ccccc1F (stereo not shown) [Example 374, 7-[1-(2-Fluorophenyl)ethoxy]-3-(1-piperidin-4-yl-1H-pyrazol-4-yl)furo[3,2-c]pyridin-6-ylamine]
500 to 5000 nM	500 to 5000 nM	COc1cccc(C(C)Oc2c(N)ncc3c(-c4cnn(C5CCNCC5)c4)coc23)c1 (stereo not shown) [Example 345, 7-[1-(3-Methoxyphenyl)-ethoxy]-3-(1-piperidin-4-yl-1H-pyrazol-4-yl)furo[3,2-c]pyridin-6-ylamine]
500 to 5000 nM	500 to 5000 nM	C[C@@H](Oc1c(N)ncc2c(-c3ccc(N4CCN(C(N)=O)CC4)nc3)coc12)c1c(Cl)ccc(F)c1Cl [Example 319, 4-(5-{6-Amino-7-[(R)-1-(2,6-dichloro-3-fluorophenyl)ethoxy]furo[3,2-c]pyridin-3-yl}pyridin-2-yl)piperazine-1-carboxamide]
500 to 5000 nM	< 500 nM	C[C@@H](Oc1c(N)ncc2c(-c3cccc(C(=O)NCCN4CCCC4)c3)coc12)c1c(Cl)ccc(F)c1Cl [Example 102, 3-{6-Amino-7-[(R)-1-(2,6-dichloro-3-fluorophenyl)ethoxy]-furo[3,2-c]pyridin-3-yl}-N-(2-pyrrolidin-1-ylethyl)benzamide]
500 to 5000 nM	500 to 5000 nM	CC(Oc1c(N)ncc2c(-c3cnn(C4CCNCC4)c3)coc12)c1ccc(OC(F)(F)F)cc1 (stereo not shown) [Example 355, 3-(1-Piperidin-4-yl-1H-pyrazol-4-yl)-7-[1-(4-trifluoromethoxy-phenyl)ethoxy]furo[3,2-c]pyridin-6-ylamine]
